Experimental data taken from ChEMBL document CHEMBL4842345, “Design, synthesis and biological evaluation of tanshinone IIA-based analogues: Potent inhibitors of microtubule formation and angiogenesis” (Eur J Med Chem, 2021).
The source made the active and inactive calls. No cut-off for these calls is given here.

Experiments:
MGC-803 = experiment: Antiproliferative activity against human MGC-803 cells assessed as reduction in cell viability measured after 72 hrs by MTT assay; type: functional, cell-based; conditions: MGC-803, 72 h
Tubulin (Homo sapiens) [1] = biological target: T1, Tubulin (Homo sapiens) (UniProt P68371+Q9H4B7+P0DPH7+P68366+Q13509+Q71U36+P04350+Q3ZCM7+P07437+P68363+Q9BQE3+Q6PEY2+Q13885+Q9BVA1+Q9BUF5); experiment: Inhibition of tubulin (unknown origin) polymerization assessed as decrease in fluorescence intensity at 12 uM by fluorescence based assay; type: protein-complex assay
Tubulin (Homo sapiens) [2] = biological target: T1, Tubulin (Homo sapiens); experiment: Induction of microtubule distruption in human A549 cells assessed as disseminated microtubules in cytoplasm at 2.5 to 10 uM measured after 48 hrs by immunofluorescence based laser scanning confocal microscopic analysis; type: cell-based; conditions: dose 2.5-10 µM
Tubulin (Homo sapiens) [3] = biological target: T1, Tubulin (Homo sapiens); experiment: Induction of microtubule distruption in human A549 cells assessed as occurence of cell shrinkage at 2.5 to 10 uM measured after 48 hrs by immunofluorescence based laser scanning confocal microscopic analysis; conditions: dose 2.5-10 µM
A549 [4] = experiment: Antiproliferative activity against human A549 cells assessed as reduction in cell viability measured after 72 hrs by MTT assay; type: functional, cell-based; conditions: A549, 72 h
A549 [5] = experiment: Induction of apoptosis in human A549 cells assessed as early apoptotic cells at 2.5 uM measured after 48 hrs by Annexin V-FITC/PI staining based flow cytometry analysis (Rvb= 0.72%); type: functional
A549 [6] = experiment: Induction of apoptosis in human A549 cells assessed as late apoptotic cells at 2.5 uM measured after 48 hrs by Annexin V-FITC/PI staining based flow cytometry analysis (Rvb= 1.47%); type: functional
A549 [7] = experiment: Induction of apoptosis in human A549 cells assessed as early apoptotic cells at 5 uM measured after 48 hrs by Annexin V-FITC/PI staining based flow cytometry analysis (Rvb= 0.72%); type: functional
A549 [8] = experiment: Induction of apoptosis in human A549 cells assessed as dead cells at 10 uM measured after 48 hrs by Annexin V-FITC/PI staining based flow cytometry analysis (Rvb= 0.67%); type: functional
A549 [9] = experiment: Induction of cell cycle arrest in human A549 cells assessed as increase in number of cells accumulation at G2/M phase at 10 uM measured after 48 hrs by flow cytometry analysis (Rvb= 16.72%); type: functional
A549 [10] = experiment: Induction of cell cycle arrest in human A549 cells assessed as accumulation of cells at G1 phase at 5 uM measured after 48 hrs by flow cytometry analysis (Rvb= 60.29%); type: functional
A549 [11] = experiment: Induction of cell cycle arrest in human A549 cells assessed as accumulation of cells at G1 phase at 10 uM measured after 48 hrs by flow cytometry analysis (Rvb= 60.29%); type: functional
HUVEC [12] = experiment: Antivascular activity against HUVEC cells assessed as reduction in area and number of meshes measured after 6 hrs by imaging analysis; type: functional, cell-based; conditions: Homo sapiens, dose 0.25-1 µM
HUVEC [13] = experiment: Inhibition of cell migration in HUVEC cells assessed as decrease in closure of wound scratching measured after 48 hrs by wound healing assay; type: functional, cell-based; conditions: Homo sapiens, dose 0.25-1 µM
Danio rerio = species: Danio rerio; experiment: Antiangiogenic activity in transgenic Tg(flk:EGFP) zebra fish embryos assessed as reduction in length of intersegmental vessels measured at 30 hrs post fertilization by confocal fluorescence microscopy analysis; type: functional, organism-based; conditions: dose 1-4 µM
[14] = Metabolic stability in human liver microsomes assessed as degradation half life; type: ADME, Microsome; conditions: microsomes
[15] = Intrinsic clearance in human liver microsome; type: ADME, microsomes; conditions: microsomes

COc1ccc2c(c1)-c1occ(C)c1C(=O)C2=O
IC50 (MGC-803): 840 nM | inhibition (Tubulin (Homo sapiens) [1]): Active | Activity (Tubulin (Homo sapiens) [2]): Active | Activity (Tubulin (Homo sapiens) [3]): Active | IC50 (A549 [4]): 320 nM | Activity (A549 [5]): 1.55% | Activity (A549 [6]): 3.28% | Activity (A549 [7]): 10.3% | Activity (A549 [8]): 0.5% | Activity (A549 [9]): 32.19% | Activity (A549 [10]): 54.43% | Activity (A549 [11]): 55.29% | Activity (HUVEC [12]): Dose-Dependent Effect | inhibition (HUVEC [13]): Dose-Dependent Effect | Activity (Danio rerio): Dose-Dependent Effect | t1/2 [14]: 1.8 h | CLH [15]: 175 µL/min/mg
